Patent publication US9650395B2, “Antibacterial compounds and methods for use” (PTC Therapeutics, Inc., priority 2011, dated 2017)
Converted amounts (≈) assume the structure as drawn.

Assays:
[1] = tested on: super sensitive Gram-negative Escherichia coli (E. coli) BAS849; test: Antibacterial activity, microbroth dilution MIC, E. coli BAS849; type: cell-based; settings: Escherichia coli; E. coli BAS849, microbroth dilution; read-out: MIC, BAS849
[2] = tested on: control Gram-negative E. coli 25922 strain; test: Antibacterial activity, microbroth dilution MIC, E. coli 25922; type: cell-based, Escherichia coli; settings: Escherichia coli; E. coli 25922, microbroth dilution; read-out: MIC, 25922
[3] = tested on: Gram-positive Staphylococcus aureus (S. aureus) 29213; test: Antibacterial activity, microbroth dilution MIC, S. aureus 29213; type: cell-based; settings: Staphylococcus aureus; S. aureus 29213, microbroth dilution; read-out: MIC, 29213

| SMILES | MIC [1] | MIC [2] | MIC [3] |
| --- | --- | --- | --- |
| CCc1cc(C(=O)O)c(=O)[nH]c1-c1ccc(OC)cc1N(C)C [Cpd 40, 6-[2-(dimethylamino)-4-methoxyphenyl]-5-ethyl-2-oxo-1,2-dihydropyridine-3-carboxylic acid] | 12.5 to 150 µg/mL (≈ 39.5 to 474 µM) | 12.5 to 150 µg/mL (≈ 39.5 to 474 µM) | 12.5 to 150 µg/mL (≈ 39.5 to 474 µM) |
| CCc1cc(C(=O)O)c(=O)[nH]c1-c1ccc(N2CCCCC2)cc1F [Cpd 43, 5-ethyl-6-[2-fluoro-4-(piperidin-1-yl)phenyl]-2-oxo-1,2-dihydropyridine-3-carboxylic acid] | < 1 µg/mL | 12.5 to 150 µg/mL (≈ 36.3 to 436 µM) | 12.5 to 150 µg/mL (≈ 36.3 to 436 µM) |
| CCc1cc(C(=O)O)c(=O)[nH]c1-c1ccccc1N1CCCC1 [Cpd 46, 5-ethyl-2-oxo-6-[2-(pyrrolidin-1-yl)phenyl]-1,2-dihydropyridine-3-carboxylic acid] | 12.5 to 150 µg/mL (≈ 40 to 480 µM) | 12.5 to 150 µg/mL (≈ 40 to 480 µM) | 12.5 to 150 µg/mL (≈ 40 to 480 µM) |
| CCc1c(-c2ccccc2N2CCCC2)[nH]c(=O)c(C(=O)O)c1O [Cpd 47, 5-ethyl-4-hydroxy-2-oxo-6-[2-(pyrrolidin-1-yl)phenyl]-1,2-dihydropyridine-3-carboxylic acid] | 1 to 3.5 µg/mL (≈ 3.05 to 10.7 µM) | 12.5 to 150 µg/mL (≈ 38.1 to 457 µM) | 3.5 to 12.5 µg/mL (≈ 10.7 to 38.1 µM) |
| CCc1c(-c2ccc(OC)cc2N2CCCC2)[nH]c(=O)c(C(=O)O)c1O [Cpd 48, 5-ethyl-4-hydroxy-6-[4-methoxy-2-(pyrrolidin-1-yl)phenyl]-2-oxo-1,2-dihydropyridine-3-carboxylic acid] | 3.5 to 12.5 µg/mL (≈ 9.77 to 34.9 µM) | 12.5 to 150 µg/mL (≈ 34.9 to 419 µM) | 3.5 to 12.5 µg/mL (≈ 9.77 to 34.9 µM) |
| CCc1c(-c2ccc(N3CCCCC3)cc2C)[nH]c(=O)c(C(=O)O)c1O [Cpd 51, 5-ethyl-4-hydroxy-6-[2-methyl-4-(piperidin-1-yl)phenyl]-2-oxo-1,2-dihydropyridine-3-carboxylic acid] | 3.5 to 12.5 µg/mL (≈ 9.82 to 35.1 µM) | 12.5 to 150 µg/mL (≈ 35.1 to 421 µM) | 3.5 to 12.5 µg/mL (≈ 9.82 to 35.1 µM) |
| CCc1cc(C(=O)O)c(=O)[nH]c1-c1ccc(N2CCCCC2)cc1C [Cpd 52, 5-ethyl-6-[2-methyl-4-(piperidin-1-yl)phenyl]-2-oxo-1,2-dihydropyridine-3-carboxylic acid] | 12.5 to 150 µg/mL (≈ 36.7 to 441 µM) | 12.5 to 150 µg/mL (≈ 36.7 to 441 µM) | 12.5 to 150 µg/mL (≈ 36.7 to 441 µM) |
| CCc1cc(C(=O)O)c(=O)[nH]c1-c1ccccc1N(C)C [Cpd 54, 6-[2-(dimethylamino)phenyl]-5-ethyl-2-oxo-1,2-dihydropyridine-3-carboxylic acid] | 12.5 to 150 µg/mL (≈ 43.7 to 524 µM) | 12.5 to 150 µg/mL (≈ 43.7 to 524 µM) | 12.5 to 150 µg/mL (≈ 43.7 to 524 µM) |
| CCc1c(-c2ccc(N(C)C)cc2C)[nH]c(=O)c(C(=O)O)c1O [Cpd 56, 6-[4-(dimethylamino)-2-methylphenyl]-5-ethyl-4-hydroxy-2-oxo-1,2-dihydropyridine-3-carboxylic acid] | 3.5 to 12.5 µg/mL (≈ 11.1 to 39.5 µM) | 12.5 to 150 µg/mL (≈ 39.5 to 474 µM) | 3.5 to 12.5 µg/mL (≈ 11.1 to 39.5 µM) |
| CCc1cc(C(=O)O)c(=O)[nH]c1-c1ccc(N(C)C)cc1C [Cpd 57, 6-[4-(dimethylamino)-2-methylphenyl]-5-ethyl-2-oxo-1,2-dihydropyridine-3-carboxylic acid] | 12.5 to 150 µg/mL (≈ 41.6 to 499 µM) | 12.5 to 150 µg/mL (≈ 41.6 to 499 µM) | 12.5 to 150 µg/mL (≈ 41.6 to 499 µM) |
| CCc1c(-c2ccccc2N(C)C)[nH]c(=O)c(C(=O)O)c1O [Cpd 58, 6-[2-(dimethylamino)phenyl]-5-ethyl-4-hydroxy-2-oxo-1,2-dihydropyridine-3-carboxylic acid] | 3.5 to 12.5 µg/mL (≈ 11.6 to 41.3 µM) | 12.5 to 150 µg/mL (≈ 41.3 to 496 µM) | 3.5 to 12.5 µg/mL (≈ 11.6 to 41.3 µM) |
| CCc1cc(C(=O)O)c(=O)[nH]c1-c1ccc(N2CCCCC2)cc1OC [Cpd 59, 5-ethyl-6-[2-methoxy-4-(piperidin-1-yl)phenyl]-2-oxo-1,2-dihydropyridine-3-carboxylic acid] | 12.5 to 150 µg/mL (≈ 35.1 to 421 µM) | 12.5 to 150 µg/mL (≈ 35.1 to 421 µM) | 12.5 to 150 µg/mL (≈ 35.1 to 421 µM) |
| CCc1c(-c2ccc(OC)cc2N(C)C)[nH]c(=O)c(C(=O)O)c1O [Cpd 60, 6-[2-(dimethylamino)-4-methoxyphenyl]-5-ethyl-4-hydroxy-2-oxo-1,2-dihydropyridine-3-carboxylic acid] | 3.5 to 12.5 µg/mL (≈ 10.5 to 37.6 µM) | 12.5 to 150 µg/mL (≈ 37.6 to 451 µM) | 3.5 to 12.5 µg/mL (≈ 10.5 to 37.6 µM) |
| CCc1c(-c2ccc(N(C)C)cc2OC)[nH]c(=O)c(C(=O)O)c1O [Cpd 61, 6-[4-(dimethylamino)-2-methoxyphenyl]-5-ethyl-4-hydroxy-2-oxo-1,2-dihydropyridine-3-carboxylic acid] | 3.5 to 12.5 µg/mL (≈ 10.5 to 37.6 µM) | 12.5 to 150 µg/mL (≈ 37.6 to 451 µM) | 3.5 to 12.5 µg/mL (≈ 10.5 to 37.6 µM) |
| CCc1cc(C(=O)O)c(=O)[nH]c1-c1ccc(N(C)C)cc1OC [Cpd 62, 6-[4-(dimethylamino)-2-methoxyphenyl]-5-ethyl-2-oxo-1,2-dihydropyridine-3-carboxylic acid] | 12.5 to 150 µg/mL (≈ 39.5 to 474 µM) | 12.5 to 150 µg/mL (≈ 39.5 to 474 µM) | 12.5 to 150 µg/mL (≈ 39.5 to 474 µM) |
| CCc1c(-c2ccc(N(C)C)c(C)c2)[nH]c(=O)c(C(=O)O)c1O [Cpd 63, 6-[4-(dimethylamino)-3-methylphenyl]-5-ethyl-4-hydroxy-2-oxo-1,2-dihydropyridine-3-carboxylic acid] | 1 to 3.5 µg/mL (≈ 3.16 to 11.1 µM) | 12.5 to 150 µg/mL (≈ 39.5 to 474 µM) | 3.5 to 12.5 µg/mL (≈ 11.1 to 39.5 µM) |
| CCc1cc(C(=O)O)c(=O)[nH]c1-c1ccc(N(C)C)c(OC)c1 [Cpd 64, 6-[4-(dimethylamino)-3-methoxyphenyl]-5-ethyl-2-oxo-1,2-dihydropyridine-3-carboxylic acid] | 3.5 to 12.5 µg/mL (≈ 11.1 to 39.5 µM) | 12.5 to 150 µg/mL (≈ 39.5 to 474 µM) | 12.5 to 150 µg/mL (≈ 39.5 to 474 µM) |
